Source: PMC12867150, “A fungi-derived cyclic peptide enhances Th9-mediated antitumor immunity by targeting ZAP70 and SREBP1” (The Journal of Clinical Investigation, 2025)

Test system: Th9 cells
Assay: Screening of 65 natural compounds for IL-9 production by Th9 cells (Figure 1B)
Format: cell-based, mouse
Details: 10 μM; result in words
From the text: To identify natural small molecules that enhance the antitumor potential of Th9 cells, we constructed a chemically and structurally defined small-molecule library derived from endophytic fungi isolated from G. lucidum and Periplaneta americana (Supplemental Table 1; supplemental material available online with this article; https://doi.org/10.1172/JCI196907DS1). This library comprised 65 structurally diverse metabolites classified into 11 distinct scaffold families, with each compound structurally elucidated via NMR spectroscopy and verified against previously reported spectral data. To functionally evaluate the immunomodulatory potential of these compounds, we systematically screened the library for their ability to promote Th9 cell differentiation, assessed by intracellular IL-9 expression using flow cytometry (Figure 1, A and B).
Naive CD4^+ T cells were isolated from the spleens of C57BL/6J or CD45.1^+ OT-II mice using the MojoSort Mouse CD4 Naive T Cell Isolation Kit (BioLegend, catalog 480040), following the manufacturer’s protocol. Purified cells were cultured in RPMI-1640 medium supplemented with 10% FBS, 1% penicillin-streptomycin, and 0.1% β-mercaptoethanol (Gibco, catalog 21985023). […]

## anteiso-C15 Leu7 surfactin [EpA]
  Th9 polarization in screen: most potent enhancer of Th9 polarization
